By EC50 is commonly meant the concentration needed to bring the measured effect to its halfway point.

Format in all cases: cell-based
Assay [1] addresses T1, COS-7/AMY3 (human calcitonin receptor (CTR) and RAMP3) (Homo sapiens, UniProt O60896+P30988).
T1 construct: expressed in transfected cells; host or cells: COS-7
Briefly: Amylin Receptor cAMP Assay I. To be noted: values marked *: Amylin Receptor cAMP Assay I; COS-7/AMY3 cells, cAMP Hi-range kit, 30 min; read-out: Amylin Receptor cAMP Stimulation Activity: EC50. From the text: Amylin Receptor cAMP Assay I
AMYRs are heterodimers of the class B calcitonin (CT) G-protein-coupled receptor (CTR) and receptor activity-modifying proteins (RAMPs). All three RAMPs can interact with the CTR and form AMY1, AMY2, AMY3 with RAMP1, RAMP2 and RAMP3, respectively. Like other class B1 GPCRs, the CT receptor family is canonically coupled to Gs-mediated cAMP production, and measurement of cAMP accumulation has been the primary assay used to determine peptide selectivity and potency.
To optimize functional activity directed toward Gαs coupling, COS-7 cells were stably transfected with human calcitonin receptor (CTR) and RAMP3, simultaneously. 100×concentration of compound working solutions were prepared (Agilent Technologies Bravo) with 4-fold serial dilution in 384-well Echo LDV plate (Labcyte, Cat #LP-0200). 100 nL/well 100×concentration of compound working solutions were moved to 384-well white low volume plate (Greiner, Cat #784075) using Labcyte ECHO550. […]
After incubation, the cAMP assay signal was generated using cAMP Hi-range Kit (Cisbio). […] The samples were then incubated at room temperature for 1 hour protected from light. the fluorescence was read at 665 and 615 nm with Reader PerkinElmer EnVision. % Activity=100%×(mean RLU of test sample−mean RLU of vehicle control)/(mean RLU of MAX control−mean RLU of vehicle control)) Amylin Receptor cAMP Assay II

Assay [2] deals with T2, human calcitonin receptor (CTR) (Homo sapiens, UniProt P30988).
T2 construct: expressed in transfected cells; host or cells: COS-7 (COS7-human CTR Clone #2)
T2 sequence (P30988 25-474): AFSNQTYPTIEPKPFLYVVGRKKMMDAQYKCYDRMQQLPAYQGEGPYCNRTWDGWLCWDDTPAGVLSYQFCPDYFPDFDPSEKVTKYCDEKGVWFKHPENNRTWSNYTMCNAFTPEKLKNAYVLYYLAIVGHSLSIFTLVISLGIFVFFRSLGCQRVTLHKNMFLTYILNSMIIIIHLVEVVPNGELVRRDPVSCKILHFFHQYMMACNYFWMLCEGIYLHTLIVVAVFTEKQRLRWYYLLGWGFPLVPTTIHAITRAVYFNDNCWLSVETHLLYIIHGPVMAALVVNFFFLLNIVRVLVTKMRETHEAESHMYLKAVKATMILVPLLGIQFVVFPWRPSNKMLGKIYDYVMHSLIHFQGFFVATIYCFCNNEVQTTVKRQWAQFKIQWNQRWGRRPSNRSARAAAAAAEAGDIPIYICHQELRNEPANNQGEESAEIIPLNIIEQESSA
The assay is described as follows: Calcitonin Receptor (CTR) cAMP Assay. To be noted: COS7-human CTR Clone #2 stable cell line, cAMP dynamic 2 kit, 30 min; read-out: Calcitonin Receptor cAMP Stimulation Activity: EC50. In short, it runs like this:
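cAMP accumulation was measured by HTRF cAMP dynamic 2 read at 665/615 nm, 1 h at room temperature, with results scaled between vehicle and positive control. Before detection, COS7-human CTR stable cells were stimulated 30 min at 37 °C with compound (4-fold dilutions) in IBMX-containing HBSS/HEPES/casein buffer.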

In assay [3] the target is T1, COS-7/AMY3 (human calcitonin receptor (CTR) and RAMP3). The assay is described as follows: Amylin Receptor cAMP Assay II. To be noted: values marked **: Amylin Receptor cAMP Assay II; COS-7/AMY3 cells, cAMP dynamic 2 kit, 30 min; read-out: Amylin Receptor cAMP Stimulation Activity: EC50. In outline:
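Agonist-induced cAMP was quantified by HTRF ratio at 665/615 nm and expressed as % of the window from vehicle to MAX control. Stimulation lasted 30 min at 37 °C in HBSS/20 mM HEPES/0.5 mM IBMX/0.1% casein, using stable human CTR+RAMP3 (AMY3) COS-7 cells at 2000 per well.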

T1 sequence (O60896 24-148, one chain of several): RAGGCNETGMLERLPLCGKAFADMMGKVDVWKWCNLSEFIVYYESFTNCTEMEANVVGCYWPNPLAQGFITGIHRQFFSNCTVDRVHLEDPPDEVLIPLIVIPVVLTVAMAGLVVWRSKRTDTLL

`COc1cccc2c1CC[C@H]2NC(=O)c1ccc(-c2c3c(nc(CCc4ccc(F)cc4)c2-c2noc(=O)[nH]2)[C@@H]2CCCN2C3=O)s1` [Compound 108, 5-((S)-2-(4-fluorophenethyl)-5-oxo-3-(5-oxo-4,5-dihydro-1,2,4-oxadiazol-3-yl)-7,8,9,9a-tetrahydro-5H-pyrido[2,3-a]pyrrolizin-4-yl)-N—((R)-4-methoxy-2,3-dihydro-1H-inden-1-yl)thiophene-2-carboxamide]: the values for the EC50 in assay [1] and in assay [2] were 121 nM and 2.42 nM, respectively.

`N#Cc1ccc(Cn2ccc3cc(-c4c(-c5cc(=O)[nH]o5)c(CCC5CCOCC5)nc5c4S(=O)(=O)N4CCC[C@@H]54)ccc32)cc1F` [Compound 200, 4-[[5-[(2S)-7,7-dioxo-10-(3-oxoisoxazol-5-yl)-11-(2-tetrahydropyran-4-ylethyl)-7thia-6,12-diazatricyclo[6.4.0.02,6]dodeca-1(8),9,11-trien-9-yl]indol-1-yl]methyl]-2-fluoro-benzonitrile]: the EC50 was determined as 1310 nM in assay [3] and 8.61 nM in assay [2].

Take `O=C(c1ccc(-c2c3c(nc(CCc4ccc(F)cc4)c2-c2noc(=O)[nH]2)[C@@H]2CCCN2C3=O)s1)N1CCCC1c1ccc(F)c(F)c1` (stereo partly shown) [Compound 116]: the values for the EC50 in assay [3] and in assay [2] were 253 nM and 25.6 nM, respectively.

Take `COc1cccc2c1CC[C@H]2Nc1nccc2cc(-c3c(-c4n[nH]c(=O)o4)c(CCc4ccc(F)cc4)nc4c3c(=O)n3n4CCC3)sc12` [Compound 155]: the values for the EC50 in assay [3] and in assay [2] were 33.5 nM and 1.21 nM, respectively.

Turning to `COc1cccc2c1CC[C@H]2Nc1nccc2cc(-c3c4c(nc(CCc5ccc(F)cc5)c3-c3n[nH]c(=O)o3)C35CC3CCN5C4=O)sc12` (stereo partly drawn) [Compound 180, 5-(8-(4-fluorophenethyl)-6-(7-(((R)-4-methoxy-2,3-dihydro-1H-inden-1-yl)amino)thieno[2,3-c]pyridin-2-yl)-5-oxo-1,1a,2,3-tetrahydro-5H-cyclopropa[g]pyrido[2,3-a]pyrrolizin-7-yl)-1,3,4-oxadiazol-2(3H)-one], the EC50 was determined as 12.7 nM in assay [3] and 0.559 nM in assay [2].

For `N#Cc1ccc(Cn2ccc3cc(-c4c5c(nc(CCc6ccc(F)cc6)c4-c4n[nH]c(=O)o4)C4CCCN4C5=O)cnc32)cc1F` (stereo not shown) [Compound 214, 2-fluoro-4-((5-(2-(4-fluorophenethyl)-5-oxo-3-(5-oxo-4,5-dihydro-1,3,4-oxadiazol-2-yl)-7,8,9,9a-tetrahydro-5H-pyrido[2,3-a]pyrrolizin-4-yl)-1H-pyrrolo[2,3-b]pyridin-1-yl)methyl)benzonitrile], the EC50 in assay [3] worked out at 129 nM; in assay [2], 1.92 nM.

Regarding `COc1c(F)c(F)cc2c1CC[C@H]2Nc1nc(C)cc2cc(-c3c4c(nc(CCc5ccc(F)cc5)c3-c3n[nH]c(=O)o3)[C@@H]3CCCN3C4=O)sc12` [Compound 299, 5-((S)-4-(7-(((R)-5,6-difluoro-4-methoxy-2,3-dihydro-1H-inden-1-yl)amino)-5-methylthieno[2,3-c]pyridin-2-yl)-2-(4-fluorophenethyl)-5-oxo-7,8,9,9a-tetrahydro-5H-pyrido[2,3-a]pyrrolizin-3-yl)-1,3,4-oxadiazol-2(3H)-one], the figures for the EC50 in assay [3] and in assay [2] were 0.363 nM and 0.0172 nM, respectively.

`O=C(NCc1ccc(F)c(F)c1)c1ccc(-c2c3c(nc(CCc4ccc(F)cc4)c2-c2cc(=O)[nH]o2)[C@@H]2CCCN2C3=O)s1` [Compound 103, (S)—N-(3,4-difluorobenzyl)-5-(2-(4-fluorophenethyl)-5-oxo-3-(3-oxo-2,3-dihydroisoxazol-5-yl)-7,8,9,9a-tetrahydro-5H-pyrido[2,3-a]pyrrolizin-4-yl)thiophene-2-carboxamide]: the results for the EC50 in assay [3] and in assay [2] were 273 nM and 21.5 nM, respectively.

As for `O=C1c2c(nc(CCC34CCC(CC3)OC4)c(-c3n[nH]c(=O)o3)c2-c2cnc3c(ccn3Cc3ncc(Cl)cc3F)c2)[C@@H]2CCCN12` [Compound 233, (S)-5-(2-(2-(2-oxabicyclo[2.2.2]octan-4-yl)ethyl)-4-(1-((5-chloro-3-fluoropyridin-2-yl)methyl)-1H-pyrrolo[2,3-b]pyridin-5-yl)-5-oxo-7,8,9,9a-tetrahydro-5H-pyrido[2,3-a]pyrrolizin-3-yl)-1,3,4-oxadiazol-2(3H)-one], the EC50 in assay [3] is 1820 nM; in assay [2], 36.3 nM.

For the molecule `COc1cccc2c1CC[C@H]2Nc1nccc2cc(-c3c4c(nc(CCc5cc(F)cs5)c3-c3n[nH]c(=O)o3)[C@@H]3CCCN3C4=O)sc12` [Compound 245, 5-((S)-2-(2-(4-fluorothiophen-2-yl)ethyl)-4-(7-(((R)-4-methoxy-2,3-dihydro-1H-inden-1-yl)amino)thieno[2,3-c]pyridin-2-yl)-5-oxo-7,8,9,9a-tetrahydro-5H-pyrido[2,3-a]pyrrolizin-3-yl)-1,3,4-oxadiazol-2(3H)-one], the EC50 in assay [3] was 19.1 nM; in assay [2], 0.469 nM.

In the case of `COc1c(F)ccc2c1CC[C@H]2Nc1ncnc2sc(-c3c4c(nc(CCc5ccc(F)cc5)c3-c3n[nH]c(=O)o3)C35CC(CN3C4=O)C5)cc12` [Compound 270, (R)-5-(4-(4-((5-fluoro-4-methoxy-2,3-dihydro-1H-inden-1-yl)amino)thieno[2,3-d]pyrimidin-6-yl)-2-(4-fluorophenethyl)-5-oxo-8,9-dihydro-5H,7H-8,9a-methanopyrido[2,3-a]pyrrolizin-3-yl)-1,3,4-oxadiazol-2(3H)-one], the figures for the EC50 in assay [3] and in assay [2] were 1.6 nM and 0.148 nM, respectively.

The values are drawn from US12486269B2 (Aconcagua Bio, Inc., priority 2024, dated 2025).
